≈ marks a conversion by molar mass, not a printed value. Read-outs that look alike come from different tables or passages of the source.
Tests used:
[1] = test system: isolated liver mitochondria; assay: Mitochondrial oxygen consumption rate (OCR) assay; type: biochemical, Sprague-Dawley rats; conditions: isolated rat liver mitochondria, state 3 (S3) respiration, glutamate/malate; Table 3
Description: Male Sprague-Dawley rats (8-10 weeks of age) were euthanized with an overdose of carbon dioxide. The liver was rapidly excised and placed in ice-cold phosphate-buffered saline (PBS) before isolation process. Mitochondria were isolated using the MitoCheck® Mitochondrial Isolation Kit (Cayman Chemical #701010, Ann Arbor, Mich.) according to manufacturer's instructions. In brief, approximately 10-14 grams of liver tissues were finely minced using a pair of scissors, and washed repeatedly with ice-cold PBS, followed by Mito Isolation Buffer. The minced tissues were homogenized with 30 ml Mito Homogenization Buffer in 40 ml dounce homogenizer and a smooth glass grinder. The homogenate was split into two clean 30 ml polycarbonate tubes and centrifuged at 1,000×g, 4° C., for 3 minutes. The supernatant was subjected to further centrifugation at 10,000×g, 4° C., for 10 minutes. The supernatant was discarded and mitochondrial pellet was suspended in Mito Isolation Buffer using a glass stirring rod and stored on ice until use. Protein concentration of mitochondria was determined using a bicinchoninic acid protein assay kit (Thermo Scientific, Waltham, Mass.).
Oxygen consumption was monitored as essentially described by Will et al., “Analysis of mitochondrial function using phosphorescent oxygen-sensitive probes,” Nature Protocols Vol. 1(6) (2006) 2563. Briefly, isolated mitochondria (50 μg mitochondrial proteins/state 3 (S3) of mitochondrial respiration for inhibitor identification, 100 μg/S2 for uncoupler identification) were incubated with compounds in 25 μl of Measurement Buffer (MB: 250 mM sucrose, 15 mM KCl, 1 mM EGTA, 5 mM MgCl2, 30 mM K2HPO4, pH 7.4) including 1% DMSO on ice for 1 hour, then mixed with 25 μl of substrate mixture including an oxygen-sensitive phosphorescent dye (MitoXpress Xtra, Agilent, Santa Clara, Calif.), glutamate (25 mM, G1626, Sigma, St. Louis, Mo.), malate (25 mM, M6413, Sigma), ADP (3.3 mM, A2754, Sigma, only for S3 of mitochondrial respiration), Fatty acid free BSA (0.1%, A0281, Sigma), and a complex II-specific inhibitor TTFA (2 μM, T27006, Sigma for the assessment of complex I-mitochondrial respiration with glutamate/malate) in a black wall/clear bottom 384-well plate. The mixtures were covered with HS mineral oil (Agilent) using the Viaflo 384-channel pipette (Integra, Hudson, N.H.). Oxygen consumption was measured for 30 min at 30° C. using a spectrofluorimeter (FLUOstar Omega, BMG Labtech, Cary, N.C.). In S3, DMSO vehicle control and antimycin A (10 μM) were used to define 0% and 100% inhibition. In S2, DMSO vehicle and FCCP (0.5-1 μM) was used to define 0% and 100% uncoupling, respectively. Area under curve typically in a range of 0-12 min (S3) or 0-24 min (S2) was used for calculations. IC50 or UC50 (uncoupling concentration), a concentration that causes 50% of inhibition or maximal (uncoupling) activation of oxygen consumption, was used to evaluate experimental quality. Data were presented as μM (per 50 μg (S3) or 100 μg (S2) mitochondrial proteins). Compounds with IC50: <100 μM (S3) and/or UC50: <200 μM (S2) were considered as high-risk on mitochondrial toxicity. Compounds with 25-50% changes in inhibition and/or uncoupling were categorized as medium-risk, since compounds with >25% changes are considered as responders.
Toxicity associated with mitochondrial dysfunction has presented a problem for promising potential antibiotics as we as other types of therapeutics. The mitochondrial oxygen consumption rate (OCR) assay is considered a reliable indicator of potential internal organ toxicity issues that may occur with powerful antibiotics. The carboxylate compounds of the invention show unexpected lower toxicity than prior art “glycine nitrile” arylomycin analogs (see, e.g., WO 2018/149419) in the mitochondrial oxygen consumption rate (OCR) assay.

[2] = test system: Acinetobacter baumannii ATCC 17978; assay: Serum MIC, broth micro-dilution; type: cell-based; conditions: Acinetobacter baumannii
Summary of the method: (§1)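 CLSI broth micro-dilution MIC run in 50% v/v cation-adjusted Mueller Hinton II broth plus 50% v/v mouse serum. Compounds were serially 2-fold diluted (10 concentrations) from a top concentration of 64, 4, 0.5 or 0.13 μg/mL; inoculum at final OD600 0.0005, incubated 35° C for 22 hours.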

[3] = test system: Escherichia coli strain ATCC 25922; assay: Serum MIC, broth micro-dilution; type: cell-based; conditions: Escherichia coli, read-out: E. coli 25922 Serum MIC
Summary of the method: as §1

[4] = test system: Klebsiella pneumoniae ATCC 700603; assay: Serum MIC, broth micro-dilution; type: cell-based; conditions: Klebsiella pneumoniae, read-out: K pneumoniae 700603 Serum MIC
Summary of the method: as §1

[5] = test system: Pseudomonas aeruginosa PA01; assay: Serum MIC, broth micro-dilution; type: cell-based; conditions: Pseudomonas aeruginosa, read-out: P. aeruginosa 01 Serum MIC
Summary of the method: as §1

[6] = ATCC17978, 50% v/v mouse serum in Mueller Hinton II cation adjusted Broth, 35° C., 22 hours, Table 4, read-out: A. baumanii 17978 Serum MIC
[7] = ATCC17978, 50% v/v mouse serum in Mueller Hinton II cation adjusted Broth, 35° C., 22 hours, Table 5, read-out: Acinetobacter baumanii 17978 Serum MIC
[8] = ATCC25922, 50% v/v mouse serum in Mueller Hinton II cation adjusted Broth, 35° C., 22 hours, Table 4
[9] = ATCC700603, 50% v/v mouse serum in Mueller Hinton II cation adjusted Broth, 35° C., 22 hours, Table 4
[10] = PA01, 50% v/v mouse serum in Mueller Hinton II cation adjusted Broth, 35° C., 22 hours, Table 4

Compound | IC50 [1] | MIC [2, 6] | MIC [2, 7] | MIC [3, 8] | MIC [4, 9] | MIC [5, 10] | MIC ([2]; ATCC17978, 22 h, read-out: A. baumanii 17978 Serum MIC) | MIC ([2]; ATCC17978, 22 h, read-out: Acinetobacter baumanii 17978 Serum MIC) | MIC ([3]; ATCC25922, 22 h) | MIC ([4]; ATCC700603, 22 h) | MIC ([5]; PA01, 22 h)
Cc1nc(-c2ccc(C(C)(C)C)cc2F)nc(N)c1C(=O)N[C@@H](CNS(N)(=O)=O)C(=O)N(C)[C@@H]1C(=O)N[C@@H](C)C(=O)N[C@H](C(=O)O)Cc2ccc(OC[C@H](O)CN)c(c2)-c2cc1cc(OC[C@H](O)CN)c2O [Example 62, (8S,11S,14S)-14-[[(2S)-2-[[4-amino-2-(4-tert-butyl-2-fluoro-phenyl)-6-methyl-pyrimidine-5-carbonyl]-amino]-3-(sulfamoyl-amino)propanoyl]-methyl-amino]-3,17-bis[(2R)-3-amino-2-hydroxy-propoxy]-18-hydroxy-11-methyl-10,13-dioxo-9,12-diazatricyclo-[13.3.1.12,6]icosa-1(18),2(20),3,5,15(19), 16-hexaene-8-carboxylic acid] | > 100 µM | 16 µM (≈ 16.4 µg/mL) | 16 µM (≈ 16.4 µg/mL) | 1 µM (≈ 1.03 µg/mL) | 1 µM (≈ 1.03 µg/mL) | 6 µM (≈ 6.16 µg/mL) |  |  |  |  | 
Cc1nc(-c2ccc(C(C)(C)C)cc2)nc(C)c1C(=O)N[C@@H](CCN)C(=O)N(C)[C@@H]1C(=O)N[C@@H](C)C(=O)N[C@H](C(=O)O)Cc2ccc(OC[C@H](O)CN)c(c2)-c2cc1cc(OC[C@H](O)CN)c2O [Example 19, (8S,11S,14S)-18-hydroxy-11-methyl-14-[methyl-[(2S)-4-amino-2-[[2-(4-tert-butylphenyl)-4,6-dimethyl-pyrimidine-5-carbonyl]amino]-butanoyl]amino]-10,13-dioxo-3,17-bis[(2R)-3-amino-2-hydroxy-propoxyl]-9,12-diazatricyclo-[13.3.1.12,6]icosa-1(18),2(20),3,5,15(19), 16-hexaene-8-carboxylic acid] | > 250 µM |  |  |  |  |  | 16 µM (≈ 15.1 µg/mL) | 16 µM (≈ 15.1 µg/mL) | 0.25 µM (≈ 0.236 µg/mL) | 0.25 µM (≈ 0.236 µg/mL) | 8 µM (≈ 7.54 µg/mL)
Cc1nc(-c2ccc(OCCC(C)(C)C)cc2)ncc1C(=O)N[C@@H](CCN)C(=O)N(C)[C@@H]1C(=O)N[C@@H](C)C(=O)N[C@H](C(=O)O)Cc2ccc(OC[C@H](O)CN)c(c2)-c2cc1cc(OC[C@H](O)CN)c2O [Example 27, (8S,11S,14S)-18-hydroxy-11-methyl-14-[methyl-[(2S)-4-amino-2-[[2-[4-(3,3-dimethylbutoxy)-phenyl]-4-methyl-pyrimidine-5-carbonyl]amino]-butanoyl]amino]-10,13-dioxo-3,17-bis[(2R)-3-amino-2-hydroxy-propoxy]-9,12-diazatricyclo-[13.3.1.12,6]icosa-1(18),2(20),3,5,15(19), 16-hexaene-8-carboxylic acid] | 20 µM | 12 µM (≈ 11.7 µg/mL) | 12 µM (≈ 11.7 µg/mL) | 0.25 µM (≈ 0.243 µg/mL) | 0.25 µM (≈ 0.243 µg/mL) | 8 µM (≈ 7.78 µg/mL) |  |  |  |  | 

Second part, led by results:

IC50 [1] | MIC [2, 6] | MIC [2, 7] | MIC [3, 8] | MIC [4, 9] | MIC [5, 10] | Compound | MIC ([2]; ATCC17978, 22 h, read-out: A. baumanii 17978 Serum MIC) | MIC ([2]; ATCC17978, 22 h, read-out: Acinetobacter baumanii 17978 Serum MIC) | MIC ([3]; ATCC25922, 22 h) | MIC ([4]; ATCC700603, 22 h) | MIC ([5]; PA01, 22 h)
> 100 µM | 8 µM (≈ 8.06 µg/mL) | 8 µM (≈ 8.06 µg/mL) | 0.5 µM (≈ 0.504 µg/mL) | 0.5 µM (≈ 0.504 µg/mL) | 4 µM (≈ 4.03 µg/mL) | Cc1nc(-c2ccc(C(C)(C)C)cc2)nc(N)c1C(=O)N[C@@H](CNS(N)(=O)=O)C(=O)N(C)[C@@H]1C(=O)N[C@@H](C)C(=O)N[C@H](C(=O)O)Cc2ccc(OC[C@@H](O)CN)c(c2)-c2cc1cc(OC[C@@H](O)CN)c2O [Example 64, (8S,11S,14S)-14-[[(2S)-2-[[4-amino-2-(4-tert-butylphenyl)-6-methyl-pyrimidine-5-carbonyl]amino]-3-(sulfamoylamino)-propanoyl]-methyl-amino]-3,17-bis[(2S)-3-amino-2-hydroxy-propoxy]-18-hydroxy-11-methyl-10,13-dioxo-9,12-diazatri-cyclo[13.3.1.12,6]icosa-1(18),2(20),3,5,15(19), 16-hexaene-8-carboxylic acid] |  |  |  |  | 
> 250 µM | 11 µM (≈ 10.2 µg/mL) | 11 µM (≈ 10.2 µg/mL) | 0.21 µM (≈ 0.194 µg/mL) | 0.17 µM (≈ 0.157 µg/mL) | 43 µM (≈ 39.8 µg/mL) | Cc1nc(-c2ccc(C3(C)CC3)cc2)ncc1C(=O)N[C@@H](CCN)C(=O)N(C)[C@@H]1C(=O)N[C@@H](C)C(=O)N[C@H](C(=O)O)Cc2ccc(OC[C@H](O)CN)c(c2)-c2cc1cc(OC[C@H](O)CN)c2O [Example 28, (8S,11S,14S)-18-hydroxy-11-methyl-14-[methyl-[(2S)-4-amino-2-[[4-methyl-2-[4-(1-methylcyclo-propyl)phenyl]-pyrimidine-5-carbonyl]amino]-butanoyl]amino]-10,13-dioxo-3,17-bis[(2R)-3-amino-2-hydroxy-propoxy]-9,12-diazatricyclo-[13.3.1.12,6]icosa-1(18),2(20),3,5,15(19), 16-hexaene-8-carboxylic acid] |  |  |  |  | 
> 250 µM | 32 µM (≈ 29.7 µg/mL) | 32 µM (≈ 29.7 µg/mL) | 1 µM (≈ 0.928 µg/mL) | 0.75 µM (≈ 0.696 µg/mL) | 16 µM (≈ 14.8 µg/mL) | Cc1nc(-c2ccc(C(C)(C)C)cc2)nc(C)c1C(=O)N[C@@H](CN)C(=O)N(C)[C@@H]1C(=O)N[C@@H](C)C(=O)N[C@H](C(=O)O)Cc2ccc(OC[C@H](O)CN)c(c2)-c2cc1cc(OC[C@H](O)CN)c2O [Example 30, (8S,11S,14S)-18-hydroxy-11-methyl-14-[methyl-[(2S)-3-amino-2-[[2-(4-tert-butylphenyl)-4,6-dimethyl-pyrimidine-5-carbonyl]amino]-propanoyl]amino]-10,13-dioxo-3,17-bis[(2R)-3-amino-2-hydroxy-propoxy]-9,12-diazatricyclo-[13.3.1.12,6]icosa-1(18),2(20),3,5,15(19), 16-hexaene-8-carboxylic acid] |  |  |  |  | 
44 µM | 4 µM (≈ 4.18 µg/mL) | 4 µM (≈ 4.18 µg/mL) | 0.25 µM (≈ 0.261 µg/mL) | 0.38 µM (≈ 0.397 µg/mL) | 6 µM (≈ 6.26 µg/mL) | C[C@@H]1NC(=O)[C@@H](N(C)C(=O)[C@H](CNS(N)(=O)=O)NC(=O)c2c(N)nc(-c3ccc(C(C)(C)C)cc3)nc2C(F)F)c2cc(OC[C@H](O)CN)c(O)c(c2)-c2cc(ccc2OC[C@H](O)CN)C[C@@H](C(=O)O)NC1=O [Example 69, (8S,11S,14S)-14-[[(2S)-2-[[4-amino-2-(4-tert-butylphenyl)-6-(difluoromethyl)-pyrimidine-5-carbonyl]amino]-3-(sulfamoylamino)-propanoyl]-methyl-amino]-3,17-bis[(2R)-3-amino-2-hydroxy-propoxy]-18-hydroxy-11-methyl-10,13-dioxo-9,12-diazatri-cyclo[13.3.1.12,6]icosa-1(18),2(20),3,5,15(19), 16-hexaene-8-carboxylic acid] |  |  |  |  | 

From patent US11208387B2, “Macrocyclic broad spectrum antibiotics” (Genentech, Inc., priority 2019, dated 2021)
